Laboratory results: publication PMC4728661, “Cancer Prevention and Health Benefices of Traditionally Consumed Borago officinalis Plants” (Nutrients, 2016)
Marks after values point to notes of the source that are not given here.

Columns and labels:
D. melanogaster [1] = test: Genotoxicity: Somatic Mutation and Recombination Test (SMART), wing spot test, simple treatments; format: in vivo, Drosophila melanogaster; settings: H2O2 0.12 M alone (positive control); for Diagnosis, Small Single Spots 1–2 Cells m = 2: key: + (positive); − (negative); for Diagnosis, Total Spots m = 2: key: + (positive); − (negative)
Experimental: The D. melanogaster system was selected for the determination of the safety of B. officinalis consumption as a well-recognized method to analyze vegetable complex mixtures using SMART [31, 32]. This test was used in order to evaluate the genotoxic and antigenotoxic activity of B. officinalis leaves and petioles as well as their selected bioactive compounds [33]. This activity was measured by direct visualization of the occurrence of recessive mutations in the wing hairs of two different D. melanogaster strains. Flies from experiments carried these visible wing genetic markers: the flare (flr) strain flr^3/ln (3LR) TM3, Bd^s and the multiple wing-hair (mwh) strain mwh/mwh. The marker flare (flr^3, 3_38.3) produces individual malformed hairs and the marker multiple wing hairs (mwh, 3_0.3) produces multiple hairs per cell. Larvae used in treatments come from two types of crosses: the standard cross with flr^3/TM3, Bd^S females mated to mwh/mwh males and the reciprocal cross.
Optimal fertile flies were anesthetized under CO2 narcotisation for cross selection and then placed in new vials for fertilization. After that, hybrid eggs from crossing were collected over an 8 h period and emerged larvae (72 ± 4 h later) were cleaned up for a few seconds in sterile distilled water to remove feeding medium rests. For genotoxicity analysis (simple treatments), groups of 100 larvae were transferred into vials containing 0.85 g of Drosophila Instant Medium (Formula 4–24, Carolina Biological Supply, Burlington, NC, USA) wetted with 4 mL of a mixture of distilled water and increasing concentrations of samples: B. officinalis BF and WF (1.25, 2.5, and 5 mg·mL^−1), RO (0.35, 0.7, 1.39 and 2.78 mM), SY (0.16, 0.32, 0.63 and 1.26 mM), SI (0.15, 0.29, 0.58 and 1.16 mM) and the mixture of these three bioactive compounds at each concentration assayed individually. Bioactive compound concentrations were chosen on the basis of their known content in B. officinalis species. […] Larvae were fed on these media until pupation (about 48 h). After emergence, resulting adult flies were sacrificed under CO2 narcotisation and stored in a 70% ethanol solution in sterile water. Emerged adults were counted for toxicity evaluation and transheterozygous wings (mwh flr^+/mwh^+ flr^3) were mounted on microscope slides and wing hair mutations (spots) scored, using a photonic microscope (Nikon) at 400× magnification for genotoxicity and antigenotoxicity evaluation.
For the evaluation of genotoxic effects, the frequencies of spots per fly of each treated series were compared to the concurrent negative control for each class of mutational clone as well as between simple and combined treatments for the same concentration comparisons. […] A multiple-decision procedure was used to categorize results as positive, inconclusive or negative. Inconclusive and positive results were evaluated by the non-parametric U test of Mann, Whitney and Wilcoxon. The inhibition percentage (IP) of genotoxicity was calculated from the total frequencies of spots per wing, following this formula [42]: IP = (genotoxin alone − sample + genotoxin) × 100/(genotoxin alone)(2)

D. melanogaster [2] = test: Toxicity: survival of Drosophila larvae to emerged adults, simple and combined (H2O2) treatments; format: in vivo, Drosophila melanogaster; settings: H2O2 0.12 M alone (positive control)
Experimental: Optimal fertile flies were anesthetized under CO2 narcotisation for cross selection and then placed in new vials for fertilization. After that, hybrid eggs from crossing were collected over an 8 h period and emerged larvae (72 ± 4 h later) were cleaned up for a few seconds in sterile distilled water to remove feeding medium rests. […] Bioactive compound concentrations were chosen on the basis of their known content in B. officinalis species. […] Larvae were fed on these media until pupation (about 48 h). After emergence, resulting adult flies were sacrificed under CO2 narcotisation and stored in a 70% ethanol solution in sterile water. […] The determination of Toxicity (T) of treatments in D. melanogaster was performed following this formula [39]: T = (N° of emerging individuals in treatment/N° of emerging individuals in the negative control) × 100(1) Differences in D. melanogaster survival between treatments at each concentration with respect to negative control were analyzed with a Chi-square test. This procedure was also performed for the analysis of each simple treatment with their correspondent combined treatment.

## OO [H2O2, hydrogen peroxide, reference compound]
D. melanogaster [1]
  Diagnosis, Small Single Spots 1–2 Cells m = 2: +
  Diagnosis, Total Spots m = 2: +
  Mutation rate, Large Single Spots >2 Cells m = 5: 0.07 (11) spots/wing
  Mutation rate, Small Single Spots 1–2 Cells m = 2: 0.60 (94) spots/wing
  Mutation rate, Total Spots m = 2: 0.65 (109) spots/wing
  Mutation rate, Twin Spots m = 5: 0.06 (4) spots/wing
D. melanogaster [2]
  Survival: 37.87 * %
